From US12590118B2, “Salt and crystal form of steroid derivative regulator” (Shanghai Hansoh Biomedical Co., Ltd., priority 2019, dated 2026)

Assays:
ICR mice = test: Forced swimming model in mice; type: in vivo; conditions: for Mean (immobility, %): floating time/240 s; for Mean (immobility, s): latter four minutes of 6 min swim
Method: The antidepressant effect of the compound was evaluated by the forced swimming model in mice.
Compounds of Examples 1 to 3, Example 9, Example 40, Example 41, Examples 48 to 52, Example 90 and Example 98 of the present invention, prepared by the applicant.
Male ICR mice (25-35 g) were adapted in the experiment environment for 3 days before the forced swimming test.
According to the experiment design, the mice were randomly grouped on the day before the experiment according to body weight, with 12 mice in each group. Before the test, the compounds of each example were administered intragastrically according to the Tmax thereof in the brain in mice pharmacokinetic experiment.
Respectively: • 1) Model group (0.5% CMC-Na-1% Tween 80 solution, p.o., 10 mL/kg); • 2) Compounds of Examples 1 to 3, Example 40, Example 41, Examples 48 to 51, Example 90 and Example 98 (10 mg/kg, p.o., 10 mL/kg); Example 9 and Example 52 (5 mg/kg, p.o., 5 mL/kg).
When being administered, the compounds of each example were suspended in 0.5% CMC-Na+1% Tween 80 solution to the desired concentration.
0.5-1 hour after administration, ICR mice were placed in a forced swimming device (transparent glass drum (water depth 18 cm, water temperature 25-26° C.), one mouse per tank) and forced to swim for 6 minutes. The forced swimming device recorded the floating time of the ICR mice during the entire 6 minutes, and the data of the latter four minutes were used for data analysis. The mice were taken out immediately after the swimming experiment, wiped dry and put back in their original cages.
Note: The criterion for determining the immobility time is that the mouse stops struggling in water and floats, and there are only slight limb movements to keep the head floating on the water.
3.4 Data Analysis Floating time percentage=100*floating time/240 s.

GABA-A receptor = test: 35S-TBPS binding assay (GABAA receptor binding ability assay); set-up: species or system Sprague-Dawley rat; conditions: rat cerebral cortex cell membrane, 5 μM GABA, 2 nM 35S-TBPS; read-out: IC50 on inhibiting the TBPS binding activity, 35S-TBPS bindng assay
Method: 1. The cerebral cortex of male Sprague-Dawley rat was isolated.
2. A pre-chilled 0.32 M sucrose solution (one tablet of protease inhibitor was added per 100 mL) was added to the cerebral cortex (the volume of sucrose solution was 10 times the volume of the cerebral cortex). The mixture was crushed with a 50 mL glass tissue homogenizer in batches and mixed well.
3. The mixture was centrifuged at 1,500 g, 4° C. for 10 minutes, and the supernatant was collected.
4. The mixture was centrifuged at 20,000 g, 4° C. for 30 minutes, and the supernatant was discarded.
5. The precipitate was resuspended with the pre-chilled phosphate buffer saline (PBS) (one tablet of protease inhibitor was added per 100 mL). An average of 4 mL of PBS was added per rat, and the mixture was mixed well with a glass tissue homogenizer.
6. The mixture was centrifuged at 10,000 g, 4° C. for 10 minutes, and the supernatant was discarded.
7. Steps 5 and 6 were repeated three times.
8. Finally, the precipitate was resuspended with 4 volumes of PBS. The resulting solution was dispensed, frozen in liquid nitrogen, and stored at −80° C.
9. The protein concentration was measured by the bicinchoninic acid (BCA) method.
1. 230 μL of PBS was added to each well of a well plate with 1.1 mL volume.
2. 60 μL of the cerebral cortex cell membrane (5 μg/μL) solution was added to each well, and the mixture was mixed well.
3. The test compound (3 μL per well) was added, and the plate was incubated at 25° C. for 5 minutes. The DMSO concentration was 1%. The initial compound concentration was […], and a
3-fold dilution in gradient was carried out to obtain a total of 8 gradients and 2 replicates. 1% DMSO was used as a negative control, and 10 μM P026-2 was used as a positive control.
4. GABA was added at a final concentration of 5 μM, and incubated at 25° C. for 5 minutes. 1 mM GABA solution was formulated, and 1.5 μL of the solution was added to each well.
5. 35S-TBPS was added at a final concentration of 2 nM. The concentration of isotope mother solution was 9.7 μM. After dilution with PBS for 100 times, 6 μL of the diluted isotope solution was added to each well.
6. The plate was incubated at 4° C. for 20 hours.
7. The FilterMate GF/C plate was pre-treated with 0.5% PEI, and incubated at 4° C. for 1 hour.
8. The FilterMate GF/C plate was washed with Universal Harvester twice, 50 mL PBS each time.
9. The reaction solution was transferred to the GF/C plate, and each well was washed 4 times with 900 μL of PBS.
10. The washed GF/C plate was placed at 55° C. and dried for 10 minutes.
11. 40 μL of scintillation solution was added to each well, and the CPM value was read with TopCount.
In the experiment, the CPM (counts per minute) value was read with TopCount. According to the readings of the High control (DMSO) and the Low control (10 μM of the positive compound) experimental groups, the % inhibition was calculated based on the following formula: % Inhibition=100×(CPMHigh control−CPMsample)/(CPMHigh control−CPMLow control)
The IC50 of the compound was calculated according to the following 4-parameter nonlinear logic formula: Y=Bottom+(Top−Bottom)/(1+10^((Log IC50−X)*HillSlope)),
wherein: • X represents the log of compound concentration, • Y represents the % Inhibition.
The effect of the compound of the present invention on the TBPS binding activity was determined by the above test, and the measured IC50 values are shown in Table 5.

Structure (SMILES) | IC50 (GABA-A receptor) [nM] | further results
C[C@@]1(O)CC[C@H]2[C@H](CC[C@@H]3[C@@H]2CC[C@@]2(C)[C@H]3[C@H](C3CC3)C[C@@H]2C(=O)Cn2nccn2)C1 [Example 50, 1-((3R,5R,8R,9R,10S,13S,14S,15S,17S)-15-Cyclopropyl-3-hydroxy-3,13-dimethylhexadecahydro-1H-cyclopenta[a]phenanthren-17-yl)-2-(2H-1,2,3-triazol-2-yl)ethan-1-one] |  | Mean (immobility, %) (ICR mice; dose 10 mpk p.o.): 29.57%; Mean (immobility, s) (ICR mice; dose 10 mpk p.o.): 70.96 s; immobility time during the latter four minutes compared with that of the model group (ICR mice; forced swimming, ICR mice): very significantly different
C[C@@]1(O)CC[C@H]2[C@H](CC[C@@H]3[C@@H]2CC[C@@]2(C)[C@H]3[C@H](C3CC3)C[C@@H]2C(=O)Cn2cc(C#N)c(Cl)n2)C1 [Example 99, 3-Chloro-1-(2-((3R,5R,8R,9R,10S,13S,14S,15S,17S)-15-cyclopropyl-3-hydroxy-3,13-dimethylhexadecahydro-1H-cyclopenta[a]phenanthren-17-yl)-2-oxoethyl)-1H-pyrazole-4-carbonitrile] | 24.4 | 
C[C@@]1(O)CC[C@H]2[C@H](CC[C@@H]3[C@@H]2CC[C@@]2(C)[C@H]3[C@H](C3CC3)C[C@@H]2C(=O)Cn2ccnn2)C1 [Example 51, 1-((3R,5R,8R,9R,10S,13S,14S,15S,17S)-15-Cyclopropyl-3-hydroxy-3,13-dimethylhexadecahydro-1H-cyclopenta[a]phenanthren-17-yl)-2-(1H-1,2,3-triazol-1-yl)ethan-1-one] |  | Mean (immobility, %) (ICR mice; dose 5 mpk p.o.): 30.72%; Mean (immobility, s) (ICR mice; dose 5 mpk p.o.): 73.72 s
Cc1nn(CC(=O)[C@H]2[C@H]3C[C@H]3[C@H]3[C@@H]4CC[C@@H]5C[C@](C)(O)CC[C@@H]5[C@H]4CC[C@@]32C)cc1C#N [Example 28, 1-(2-((2R,4aS,4bR,6aS,7S,7aS,8aR,8bR,8cR,10aR)-2-Hydroxy-2,6a-dimethyloctadecahydrocyclopropa[4,5]cyclopenta[1,2-a]phenanthren-7-yl)-2-oxoethyl)-3-methyl-1H-pyrazole-4-carbonitrile] | 15.4 | 
CC[C@@H]1C[C@H](C(=O)Cn2nnc(C)n2)[C@@]2(C)CC[C@H]3[C@@H](CC[C@@H]4C[C@](C)(O)CC[C@@H]43)[C@H]12 [Example 92, 1-((3R,5R,8R,9R,10S,13S,14S,15R,17S)-15-Ethyl-3-hydroxy-3,13-dimethylhexadecahydro-1H-cyclopenta[a]phenanthren-17-yl)-2-(5-methyl-2H-tetrazol-2-yl)ethan-1-one] | 27 | 
C[C@@H]1C[C@H](C(=O)Cn2ncnn2)[C@@]2(C)CC[C@H]3[C@@H](CC[C@@H]4C[C@](C)(O)CC[C@@H]43)[C@H]12 [Example 44, 1-((3R,5R,8R,9R,10S,13S,14S,15R,17S)-3-Hydroxy-3,13,15-trimethylhexadecahydro-1H-cyclopenta[a]phenanthren-17-yl)-2-(2H-tetrazol-2-yl)ethan-1-one] | 6.1 | 
CC[C@@H]1C[C@H](C(=O)Cn2ncnn2)[C@@]2(C)CC[C@H]3[C@@H](CC[C@@H]4C[C@](C)(O)CC[C@@H]43)[C@H]12 [Example 100, 1-((3R,5R,8R,9R,10S,13S,14S,15R,17S)-15-Ethyl-3-hydroxy-3,13-dimethylhexadecahydro-1H-cyclopenta[a]phenanthren-17-yl)-2-(2H-tetrazol-2-yl)ethan-1-one] | 25.6 | 
C[C@@]1(O)CC[C@H]2[C@H](CC[C@@H]3[C@@H]2CC[C@@]2(C)[C@H]3[C@@H]3C[C@@H]3[C@@H]2C(=O)Cn2ncc(C#N)c2C2CC2)C1 [Example 25, 5-Cyclopropyl-1-(2-((2R,4aS,4bR,6aS,7S,7aS,8aR,8bR,8cR,10aR)-2-hydroxy-2,6a-dimethyloctadecahydrocyclopropa[4,5]cyclopenta[1,2-a]phenanthren-7-yl)-2-oxoethyl)-1H-pyrazole-4-carbonitrile] | 28.1 | 
C[C@@]1(O)CC[C@H]2[C@H](CC[C@@H]3[C@@H]2CC[C@@]2(C)[C@H]3[C@@H]3C[C@@H]3[C@@H]2C(=O)Cn2cc(C#N)c(C3CC3)n2)C1 [Example 24, 3-Cyclopropyl-1-(2-((2R,4aS,4bR,6aS,7S,7aS,8aR,8bR,8cR,10aR)-2-hydroxy-2,6a-dimethyloctadecahydrocyclopropa[4,5]cyclopenta[1,2-a]phenanthren-7-yl)-2-oxoethyl)-1H-pyrazole-4-carbonitrile] | 18.3 | 
C[C@@]1(O)CC[C@H]2[C@H](CC[C@@H]3[C@@H]2CC[C@@]2(C)[C@H]3[C@@H]3C[C@@H]3[C@@H]2C(=O)Cn2cc(Cl)cn2)C1 [Example 14, 2-(4-Chloro-1H-pyrazol-1-yl)-1-((2R,4aS,4bR,6aS,7S,7aS,8aR,8bR,8cR,10aR)-2-hydroxy-2,6a-dimethyloctadecahydrocyclopropa[4,5]cyclopenta[1,2-a]phenanthren-7-yl)ethan-1-one] | 6.4 | 
Cc1nnnn1CC(=O)[C@H]1[C@H]2C[C@H]2[C@H]2[C@@H]3CC[C@@H]4C[C@](C)(O)CC[C@@H]4[C@H]3CC[C@@]21C [Example 71, 1-((2R,4aS,4bR,6aS,7S,7aS,8aR,8bR,8cR,10aR)-2-Hydroxy-2,6a-dimethyloctadecahydrocyclopropa[4,5]cyclopenta[1,2-a]phenanthren-7-yl)-2-(5-methyl-1H-tetrazol-1-yl)ethan-1-one] | 11.4 | 
Cc1nnn(CC(=O)[C@H]2C[C@@H](C)[C@H]3[C@@H]4CC[C@@H]5C[C@](C)(O)CC[C@@H]5[C@H]4CC[C@@]32C)n1 [Example 43, 1-((3R,5R,8R,9R,10S,13S,14S,15R,17S)-3-Hydroxy-3,13,15-trimethylhexadecahydro-1H-cyclopenta[a]phenanthren-17-yl)-2-(5-methyl-2H-tetrazol-2-yl)ethan-1-one] | 5.4 | 
C[C@@]1(O)CC[C@H]2[C@H](CC[C@@H]3[C@@H]2CC[C@@]2(C)[C@H]3[C@H](C3CC3)C[C@@H]2C(=O)Cn2ccc(C(F)(F)F)n2)C1 [Example 97, 1-((3R,5R,8R,9R,10S,13S,14S,15S,17S)-15-Cyclopropyl-3-hydroxy-3,13-dimethylhexadecahydro-1H-cyclopenta[a]phenanthren-17-yl)-2-(3-(trifluoromethyl)-1H-pyrazol-1-yl)ethan-1-one] | 18.6 | 
